Earlier results as cited in paper PMC5517430, “2,3,7,8-Tetrachlorodibenzo-p-dioxin (TCDD)-elicited effects on bile acid homeostasis: Alterations in biosynthesis, enterohepatic circulation, and microbial metabolism” (Scientific Reports, 2017).

Tested on: FXR
Set-up: method as in PMID 23395169
Conditions: cited from earlier work

Row | SMILES | FXR antagonism
1 | C[C@H](CCC(=O)NCCS(=O)(=O)O)[C@H]1CC[C@H]2[C@@H]3[C@@H](O)[C@@H](O)[C@@H]4C[C@H](O)CC[C@]4(C)[C@H]3CC[C@]12C [T-β-MCA] | competitive antagonists
2 | C[C@H](CCC(=O)NCCS(=O)(=O)O)[C@H]1CC[C@H]2[C@@H]3[C@H](O)[C@@H](O)[C@@H]4C[C@H](O)CC[C@]4(C)[C@H]3CC[C@]12C [T-α-MCA, tauro-α-muricholic acid] | competitive antagonists
